Reference: patent US20230053688A1, “METHODS TO ALTER LATENCY IN EBV+ MALIGNANCIES” (Cornell University, priority 2020, published 2023)
Where a name gives a salt, the structure may show the parent alone. Read-outs that look alike come from different tables or passages of the source.

System: LMP1 expression in Kem I cells
Test: microbe, parasite or virus in culture
Format: cell-based, EBV
Conditions: for Average LMP1 Fold Increase / Replicate 1-LMP1 Fold Increase / Replicate 2-LMP1 Fold Increase: Kem I cells, 48 hours; for Average LMP1 Fold Increase: average of replicates 1 and 2; for Replicate 1-LMP1 Fold Increase / Replicate 2-LMP1 Fold Increase: fold change in LMP1 transcript vs vehicle; for fold induction at 2.5 µM / fold induction at 1 µM: human gammaherpesvirus 4, 48 h
[1] = read-out: Average LMP1 Fold Increase, Kem I cells, 2.5 uM, 48 hours, average of replicates 1 and 2
[2] = read-out: Replicate 1-LMP1 Fold Increase, Kem I cells, 2.5 uM, 48 hours, fold change in LMP1 transcript vs vehicle
[3] = read-out: Replicate 2-LMP1 Fold Increase, Kem I cells, 2.5 uM, 48 hours, fold change in LMP1 transcript vs vehicle

## COc1ccc(C[C@@H](C)NC[C@H](O)c2ccc(O)c(NC=O)c2)cc1.COc1ccc(C[C@@H](C)NC[C@H](O)c2ccc(O)c(NC=O)c2)cc1.O=C(O)/C=C/C(=O)O [Formoterol Hemifumarate]
2.5 uM
  Average LMP1 Fold Increase: 1.83
  Replicate 1-LMP1 Fold Increase: 1.71
  Replicate 2-LMP1 Fold Increase: 1.96

## C=C[C@@]1(C)CC(=O)[C@]2(O)[C@@]3(C)[C@@H](O)CCC(C)(C)[C@@H]3[C@H](O)[C@H](OC(C)=O)[C@@]2(C)O1 [Forskolin]
[1]
  fold induction at 2.5 µM: 1.25
[2]
  fold induction at 2.5 µM: 1.39
[3]
  fold induction at 2.5 µM: 1.11

## COc1cc(Nc2ncc(F)c(Nc3ccc4c(n3)N(COP(=O)(O)O)C(=O)C(C)(C)O4)n2)cc(OC)c1OC [Fostamatinib (R788)]
2.5 uM
  Average LMP1 Fold Increase: 0.67
  Replicate 1-LMP1 Fold Increase: 0.24
  Replicate 2-LMP1 Fold Increase: 1.11

## C[C@]12CC[C@@H]3c4ccc(O)cc4C[C@@H](CCCCCCCCC[S+]([O-])CCCC(F)(F)C(F)(F)F)[C@H]3[C@@H]1CC[C@@H]2O (stereo partly drawn) [Fulvestrant]
[1]
  fold induction at 2.5 µM: 0.17
[2]
  fold induction at 2.5 µM: 0.16
[3]
  fold induction at 2.5 µM: 0.18

## Cc1nc(-c2cn3c(n2)-c2ccc(-c4cnn(C(C)(C)C(N)=O)c4)cc2OCC3)n(C(C)C)n1 [GDC-0032]
1 uM
  Average LMP1 Fold Increase: 1.23
  Replicate 1-LMP1 Fold Increase: 1.86
  Replicate 2-LMP1 Fold Increase: 0.59

## CC(C)NC[C@@H](C(=O)N1CCN(c2ncnc3c2[C@H](C)C[C@H]3O)CC1)c1ccc(Cl)cc1 [GDC-0068]
2.5 uM
  Average LMP1 Fold Increase: 0.27
  Replicate 1-LMP1 Fold Increase: 0.27
  Replicate 2-LMP1 Fold Increase: 0.27

## CN[C@@H](C)C(=O)N[C@H](C(=O)N1CCC[C@H]1C(=O)Nc1snnc1-c1ccccc1)C1CCCCC1 [GDC-0152]
2.5 uM
  Average LMP1 Fold Increase: 0.68
  Replicate 1-LMP1 Fold Increase: 0.76
  Replicate 2-LMP1 Fold Increase: 0.59

## CS(=O)(=O)N1CCN(Cc2cc3nc(-c4cccc5[nH]ncc45)nc(N4CCOCC4)c3s2)CC1 [GDC-0941]
2.5 uM
  Average LMP1 Fold Increase: 0.92
  Replicate 1-LMP1 Fold Increase: 0.75
  Replicate 2-LMP1 Fold Increase: 1.09

## NC(=O)c1cccc(-c2cc(Nc3ccc(OC(F)(F)F)cc3)ncn2)c1 [GNF-2]
2.5 uM
  Average LMP1 Fold Increase: 1.06
  Replicate 1-LMP1 Fold Increase: 0.21
  Replicate 2-LMP1 Fold Increase: 1.91

## CC1=C(C(=O)Nc2cc3cn[nH]c3cc2F)C(c2ccc(C(F)(F)F)cc2)CC(=O)N1 (stereo not drawn) [GSK429286A]
2.5 uM
  Average LMP1 Fold Increase: 0.57
  Replicate 1-LMP1 Fold Increase: 0.60
  Replicate 2-LMP1 Fold Increase: 0.54

## C[C@@H](Oc1cc(-n2cnc3ccc(CN4CCN(C)CC4)cc32)sc1C(N)=O)c1ccccc1C(F)(F)F [GSK461364]
2.5 uM
  Average LMP1 Fold Increase: 1.62
  Replicate 1-LMP1 Fold Increase: 1.73
  Replicate 2-LMP1 Fold Increase: 1.50

## CCn1c(-c2nonc2N)nc2c(C#CC(C)(C)O)ncc(OC[C@H]3CCCNC3)c21 [GSK690693]
2.5 uM
  Average LMP1 Fold Increase: 0.63
  Replicate 1-LMP1 Fold Increase: 0.85
  Replicate 2-LMP1 Fold Increase: 0.41

## CC(C)c1noc(N2CCC(COc3ccc(-c4ccc(S(C)(=O)=O)cc4)nc3)CC2)n1 [GSK1292263]
2.5 uM
  Average LMP1 Fold Increase: 0.27
  Replicate 1-LMP1 Fold Increase: 0.20
  Replicate 2-LMP1 Fold Increase: 0.34

## CCc1cc(Nc2nccc(-c3c(-c4ccc(OC)c(C(=O)Nc5c(F)cccc5F)c4)nc4ccccn34)n2)c(OC)cc1N1CCC(N2CCN(S(C)(=O)=O)CC2)CC1 [GSK1904529A]
2.5 uM
  Average LMP1 Fold Increase: 0.20
  Replicate 1-LMP1 Fold Increase: 0.18
  Replicate 2-LMP1 Fold Increase: 0.23

## Cc1cccc(CC(=O)N2CCc3c2ccc(-c2cn(C)c4ncnc(N)c24)c3F)n1 [GSK2656157]
2.5 uM
  Average LMP1 Fold Increase: 0.71
  Replicate 1-LMP1 Fold Increase: 0.58
  Replicate 2-LMP1 Fold Increase: 0.84

## CCOC(=O)CCNc1cc(N2CCc3ccccc3CC2)nc(-c2ccccn2)n1.Cl [GSK J4 HCl]
2.5 uM
  Average LMP1 Fold Increase: 32.34
  Replicate 1-LMP1 Fold Increase: 48.53
  Replicate 2-LMP1 Fold Increase: 16.15

## Cc1cc(SCc2sc(-c3ccc(C(F)(F)F)c(F)c3)nc2C)ccc1OCC(=O)O [GW0742]
2.5 uM
  Average LMP1 Fold Increase: 0.76
  Replicate 1-LMP1 Fold Increase: 0.53
  Replicate 2-LMP1 Fold Increase: 0.99

## COc1ccc(COc2ccc(Cc3cnc(N)nc3N)cc2OC)cc1 [GW2580]
2.5 uM
  Average LMP1 Fold Increase: 0.49
  Replicate 1-LMP1 Fold Increase: 0.50
  Replicate 2-LMP1 Fold Increase: 0.48

## Cl.O=C(O)Cc1cccc(OCCCN(Cc2cccc(C(F)(F)F)c2Cl)CC(c2ccccc2)c2ccccc2)c1 [GW3965 HCl]
2.5 uM
  Average LMP1 Fold Increase: 0.27
  Replicate 1-LMP1 Fold Increase: 0.20
  Replicate 2-LMP1 Fold Increase: 0.35

## CC(C)c1onc(-c2c(Cl)cccc2Cl)c1COc1ccc(/C=C/c2cccc(C(=O)O)c2)c(Cl)c1 [GW4064]
2.5 uM
  Average LMP1 Fold Increase: 0.72
  Replicate 1-LMP1 Fold Increase: 0.94
  Replicate 2-LMP1 Fold Increase: 0.50

## O=C(O)CCc1ccc(NCc2cccc(Oc3ccccc3)c2)cc1 [GW9508]
2.5 uM
  Average LMP1 Fold Increase: 0.48
  Replicate 1-LMP1 Fold Increase: 0.52
  Replicate 2-LMP1 Fold Increase: 0.45

## O=C(Nc1ccccc1)c1cc([N+](=O)[O-])ccc1Cl [GW9662]
2.5 uM
  Average LMP1 Fold Increase: 0.58
  Replicate 1-LMP1 Fold Increase: 0.26
  Replicate 2-LMP1 Fold Increase: 0.89

## Cn1cc(/C=C2\C(=O)Nc3cccnc32)c2ccccc21 [GW441756]
2.5 uM
  Average LMP1 Fold Increase: 0.80
  Replicate 1-LMP1 Fold Increase: 0.70
  Replicate 2-LMP1 Fold Increase: 0.89

## CC(C)c1cc(-c2n[nH]c(=O)n2-c2ccc3c(ccn3C)c2)c(O)cc1O [Ganetespib]
read-out: Average LMP1 Fold Increase, Kem I cells, 1 uM, 48 hours, average of replicates 1 and 2
  fold induction at 1 µM: 23.4
read-out: Replicate 1-LMP1 Fold Increase, Kem I cells, 1 uM, 48 hours, fold change in LMP1 transcript vs vehicle
  fold induction at 1 µM: 8.07
read-out: Replicate 2-LMP1 Fold Increase, Kem I cells, 1 uM, 48 hours, fold change in LMP1 transcript vs vehicle
  fold induction at 1 µM: 38.8

## C[C@@H]1C(=O)O[C@H]2C[C@@]34[C@H]5C[C@@H](C(C)(C)C)[C@]36[C@@H](OC(=O)[C@@H]6O)O[C@@]4(C(=O)O5)[C@]21O [Ginkgolide A]
2.5 uM
  Average LMP1 Fold Increase: 0.91
  Replicate 1-LMP1 Fold Increase: 1.33
  Replicate 2-LMP1 Fold Increase: 0.49

## CC1C(=O)OC2C(O)C34C5CC(C(C)(C)C)C36C(OC(=O)C6O)OC4(C(=O)O5)C12O (stereo not drawn) [Ginkgolide B]
2.5 uM
  Average LMP1 Fold Increase: 0.76
  Replicate 1-LMP1 Fold Increase: 1.04
  Replicate 2-LMP1 Fold Increase: 0.49

## Cc1ccc(S(=O)(=O)NC(=O)NN2CC3CCCC3C2)cc1 (stereo not drawn) [Gliclazide]
[1]
  fold induction at 2.5 µM: 0.73
[2]
  fold induction at 2.5 µM: 0.98
[3]
  fold induction at 2.5 µM: 0.49

## COc1ccc2c(c1)C(=O)N(CCc1ccc(S(=O)(=O)NC(=O)NC3CCCCC3)cc1)C(=O)C2(C)C [Gliquidone]
[1]
  fold induction at 2.5 µM: 0.77
[2]
  fold induction at 2.5 µM: 0.81
[3]
  fold induction at 2.5 µM: 0.73

## COc1ccc2c(c1)c(C1=C(c3c[nH]c4ccccc34)C(=O)NC1=O)cn2CCCN(C)C [Go 6983]
2.5 uM
  Average LMP1 Fold Increase: 0.34
  Replicate 1-LMP1 Fold Increase: 0.22
  Replicate 2-LMP1 Fold Increase: 0.45

## CN1C2CCCC1CC(NC(=O)c1nn(C)c3ccccc13)C2 (stereo not drawn) [Granisetron HCl]
[1]
  fold induction at 2.5 µM: 0.25
[2]
  fold induction at 2.5 µM: 0.25
[3]
  fold induction at 2.5 µM: 0.24

## Cl.Cl.O=S(=O)(NCCNC/C=C/c1ccc(Br)cc1)c1cccc2cnccc12 [H 89 2HCl]
2.5 uM
  Average LMP1 Fold Increase: 0.68
  Replicate 1-LMP1 Fold Increase: 0.54
  Replicate 2-LMP1 Fold Increase: 0.82

## CC(C)c1ccc(NC(=O)Cn2cnc3c2c(=O)n(C)c(=O)n3C)cc1 [HC-030031]
2.5 uM
  Average LMP1 Fold Increase: 0.28
  Replicate 1-LMP1 Fold Increase: 0.32
  Replicate 2-LMP1 Fold Increase: 0.24

## O=C1[C@H](Cc2ccc(O)cc2)N2C(=O)CCN(C(=O)NCc3ccccc3)[C@H]2CN1Cc1cccc2ccccc12 [ICG-001]
2.5 uM
  Average LMP1 Fold Increase: 1.04
  Replicate 1-LMP1 Fold Increase: 1.17
  Replicate 2-LMP1 Fold Increase: 0.92

## O=C(c1ccc(Nc2nccc(-c3cc4ccccc4s3)n2)cc1)N1CCC(N2CCCC2)CC1 [IKK-16 (IKK Inhibitor VII)]
2.5 uM
  Average LMP1 Fold Increase: 0.30
  Replicate 1-LMP1 Fold Increase: 0.26
  Replicate 2-LMP1 Fold Increase: 0.35

## O=C(Nc1cc(C(F)(F)F)cc(C(F)(F)F)c1)c1cc(Cl)ccc1O [IMD 0354]
[1]
  fold induction at 2.5 µM: 0.62
[2]
  fold induction at 2.5 µM: 0.74
[3]
  fold induction at 2.5 µM: 0.5
